What all share (assay type): in vivo
For experiment [1], the system named is Pseudaletia separata. Description: Test Example 1: control of Pseudaletia separata larvae on rice seedlings, treatment at the foot of the seedlings. The conditions noted are these: single compound, 5 mL/cup, larvae released after 2 days, counted after 3 days. On the procedure:
The compound I was dissolved in water to prepare an aqueous solution having a prescribed concentration. Also, the compound (1) (Coragen (registered trademark), product of DuPont) was diluted with water to prepare a chemical solution of the compound. These solutions were appropriately mixed to prepare a test mixed chemical solution having a prescribed concentration of the compound I and the compound (1).
(§1) A 90 mL plastic cup was filled with cultivation soil and 15 rice seeds were sown.
Two weeks after seedlings emerged, the foot of rice seedlings were treated with the test mixed chemical solution (5 mL/plastic cup). After 2 days, 30 of first-instar larvae of Pseudaletia separata were released per plastic cup. After 3 days, the number of surviving larvae was counted and the control rate was calculated using the equation A.
For comparison, tests were conducted in the same manner using a test aqueous solution having a prescribed concentration of the compound I, prepared by diluting an aqueous solution of the compound I with water, and a test aqueous solution having a prescribed concentration of the compound (1), prepared by diluting an aqueous solution of the compound (1) with water.
(§2) Control rate=100×(1−[(Ts/30)/(Cs/30)]) “Equation A” Ts and Cs represent the number of surviving larvae in a treated group and that in a non-treated group, respectively. Provided that, when the control rate is less than 0 (Ts>Cs), it is indicated by 0.

The test system of experiment [2] is Pseudaletia separata. In words: Test Example 2: control of Pseudaletia separata larvae on rice seedlings, treatment at the foot of the seedlings. As to conditions: single compound, 5 mL/cup, larvae released after 2 days, counted after 3 days. On the procedure:
as §2
The compound I was dissolved in water to prepare an aqueous solution having a prescribed concentration. Also, the compound (2) was dissolved in a mixed solution (44:1) of acetone and Tween 20, followed by dilution with water to prepare a chemical solution. These solutions were appropriately mixed to prepare a test mixed chemical solution having a prescribed concentration of the compound I and the compound (2).
as §1
Two weeks after seedlings emerged, the foot of rice seedlings were treated with the test mixed chemical solution (5 mL/plastic cup). After 2 days, 30 of first-instar larvae of Pseudaletia separata were released per plastic cup. After 3 days, the number of surviving larvae was counted and the control rate was calculated using the equation A in the same manner as in Test Example 1.
For comparison, tests were conducted in the same manner using a test aqueous solution having a prescribed concentration of the compound I, prepared by diluting an aqueous solution of the compound I with water, and a test chemical solution having a prescribed concentration of the compound (2), prepared by dissolving the compound (2) in a mixed solution (1:9) of acetone and Tween 20, followed by dilution with water.

The subject of experiment [3] is Pseudaletia separata. In words: Test Example 3: control of Pseudaletia separata larvae on rice seedlings treated with chemical solution and air dried. The conditions noted are these: single compound, 20 mL/cup, larvae released after air drying, counted after 3 days. The method, then: as §2
The compound I was dissolved in water to prepare an aqueous solution having a prescribed concentration. Also, the compound (3) was dissolved in a mixed solution (44:1) of acetone and Tween 20, followed by dilution with water to prepare a chemical solution. These solutions were appropriately mixed to prepare a test mixed chemical solution having a prescribed concentration of the compound I and the compound (3).
A 90 mL plastic cup, was filled with cultivation soil and 15 rice seeds were sown.
Two weeks after seedlings emerged, the rice seedlings were treated with the test mixed chemical solution (20 mL/plastic cup). After air dying, 30 of first-instar larvae of Pseudaletia separata were released per plastic cup. After 3 days, the number of surviving larvae was counted and the control rate was calculated using the equation A in the same manner as in Test Example 1 and Test Example 2.
For comparison, tests were conducted in the same manner using a test aqueous solution having a prescribed concentration of the compound I, prepared by diluting an aqueous solution of the compound I with water, and a test chemical solution having a prescribed concentration of the compound (3), prepared by dissolving the compound (3) in a mixed solution (1:9) of acetone and Tween 20, followed by dilution with water.

Consider `CNC(=O)c1cc(Cl)cc(C)c1NC(=O)c1cc(Br)nn1-c1ncccc1Cl` [Compound (1), chlorantraniliprole, reference compound], for which the “Control rate (%)” value was 78% in the experiment on Pseudaletia separata [1] (1.0 ppm) and 87% with Pseudaletia separata [1] (3.0 ppm).

With `CNC(=O)c1cc(C#N)cc(C)c1NC(=O)c1cc(Br)nn1-c1ncccc1Cl` [Compound (2), cyantraniliprole, reference compound], in the experiment on Pseudaletia separata [2] (1.0 ppm), the “Control rate (%)” value was found to be 59%.

For the molecule `CC(NC(=O)c1cc(Cl)cc(Br)c1NC(=O)c1cc(Br)nn1-c1ncccc1Cl)C1CC1` (stereo not drawn) [Compound (3), N-[2-bromo-4-chloro-6-[[α-methyl-(cyclopropylmethyl)amino]carbonyl]-phenyl]-3-bromo-1-(3-chloro-2-pyridinyl)-1H-pyrazole-5-carboxamide], in the experiment with Pseudaletia separata [3] (0.3 ppm), the “Control rate (%)” value is reported as 58%.

Regarding `O=C(O)CCC(=O)NCCc1ccccc1` [Compound I, 4-oxo-4-[(2-phenylethyl)amino]-butyric acid], the “Control rate (%)” value in the experiment on Pseudaletia separata [2] (30 ppm), in the experiment with Pseudaletia separata [2] (100 ppm), with Pseudaletia separata [1] (10 ppm), in the experiment with Pseudaletia separata [1] (30 ppm), in the experiment on Pseudaletia separata [1] (100 ppm) and in the experiment on Pseudaletia separata [3] (10 ppm) was 0% each time. The “Control rate (%)” value with Pseudaletia separata [3] (30 ppm) and with Pseudaletia separata [3] (100 ppm) was 0% each time.

(Values after patent US8669206B2, “Composition and method for controlling arthropod pests” (Sumitomo Chemical Company, Limited, priority 2009, dated 2014).)
